Test results reported in article PMC12016938, “A small molecule PKCε inhibitor reduces hyperalgesia induced by paclitaxel or opioid withdrawal” (JCI Insight, 2025).
Where “and” joins values, the source holds several entries; their conditions need not be identical. Equal entries are not always repeated. Entries after “also recorded” stand apart in the source; their conditions may differ.

How the values were obtained:
PKCβII = biological target: T1, PKCβII (Homo sapiens, UniProt P05771); test: Lance-FRET kinase assay, PKCβII; assay type: biochemical; conditions: Figure 1B
T1 construct: purchased SignalChem Biotech
T1 sequence (P05771 1-673 isoform P05771-2): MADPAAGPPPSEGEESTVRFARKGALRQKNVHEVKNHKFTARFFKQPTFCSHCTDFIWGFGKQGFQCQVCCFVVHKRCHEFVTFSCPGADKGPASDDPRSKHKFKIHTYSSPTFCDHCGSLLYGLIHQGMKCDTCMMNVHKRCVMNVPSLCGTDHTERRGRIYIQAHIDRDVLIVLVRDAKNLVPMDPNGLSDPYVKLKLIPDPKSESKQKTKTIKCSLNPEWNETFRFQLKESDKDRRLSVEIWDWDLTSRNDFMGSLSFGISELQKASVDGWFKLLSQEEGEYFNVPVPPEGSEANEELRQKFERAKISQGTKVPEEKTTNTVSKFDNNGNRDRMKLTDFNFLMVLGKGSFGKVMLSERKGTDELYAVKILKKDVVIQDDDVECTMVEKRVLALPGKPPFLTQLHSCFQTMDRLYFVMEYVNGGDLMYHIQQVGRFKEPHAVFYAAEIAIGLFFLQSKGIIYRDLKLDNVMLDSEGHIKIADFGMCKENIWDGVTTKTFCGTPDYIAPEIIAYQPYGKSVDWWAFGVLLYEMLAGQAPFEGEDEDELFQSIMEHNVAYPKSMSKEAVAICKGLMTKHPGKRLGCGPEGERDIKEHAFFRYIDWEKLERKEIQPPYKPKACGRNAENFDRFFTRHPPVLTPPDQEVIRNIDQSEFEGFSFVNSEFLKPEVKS
Description: (§1) Kinase assays. CP612 was assayed against His-AVI–tagged human PKCε (1 nM) produced in Sf9 cells, and ROCK1 (Carna Biosciences; 5 nM) using the Lance-FRET kinase assay system (PerkinElmer Revvity). Other human recombinant PKCs (SignalChem Biotech) were assayed in triplicate at the following concentrations: PKCβII 1.6 nM, PKCγ 500 pM, PKCδ 5 nM, PKCθ 500 pM, and PKCζ 500 pM. PKCs were incubated in a 15 μL reaction volume with kinase buffer (20 mM Tris-HCL [pH 7.4], 10 mM MgCl2, 0.25 mM EGTA, 0.1 mg/mL BSA, and 0.15% Triton X-100), 50 nM ULight-labeled CREBtide […] (PerkinElmer, TRF0107, Revvity), and test compound. […] After incubation at 27°C for another 60 minutes, phosphorylation was detected using a FlexStation 3 Microplate Reader (Molecular Devices) in LANCE TR-FRET mode (excitation = 340 nm, emission = 665 nm) and expressed as relative fluorescence units (RFU). The percentage of inhibition was calculated as: (signal without test compound − signal with test compound)/(signal without test compound − signal without ATP) × 100. […]
(§2) Kinase assays used 11-point concentration-response curves and results were analyzed by nonlinear regression using Prism 9 (GraphPad Software) to determine IC50 values. […] Scores for pain threshold, conditioned place preference, and self-administration were analyzed by ANOVA using the following factors. […]

CLK4 = biological target: T2, CLK4 (Homo sapiens, UniProt Q9HAZ1); test: scanMax kinome panel, CLK4; assay type: binding; conditions: 200 nM CP612; read-out: scanMax % of control, CLK4
T2 construct: purchased Eurofins-DiscoverX
T2 sequence (Q9HAZ1 whole entry): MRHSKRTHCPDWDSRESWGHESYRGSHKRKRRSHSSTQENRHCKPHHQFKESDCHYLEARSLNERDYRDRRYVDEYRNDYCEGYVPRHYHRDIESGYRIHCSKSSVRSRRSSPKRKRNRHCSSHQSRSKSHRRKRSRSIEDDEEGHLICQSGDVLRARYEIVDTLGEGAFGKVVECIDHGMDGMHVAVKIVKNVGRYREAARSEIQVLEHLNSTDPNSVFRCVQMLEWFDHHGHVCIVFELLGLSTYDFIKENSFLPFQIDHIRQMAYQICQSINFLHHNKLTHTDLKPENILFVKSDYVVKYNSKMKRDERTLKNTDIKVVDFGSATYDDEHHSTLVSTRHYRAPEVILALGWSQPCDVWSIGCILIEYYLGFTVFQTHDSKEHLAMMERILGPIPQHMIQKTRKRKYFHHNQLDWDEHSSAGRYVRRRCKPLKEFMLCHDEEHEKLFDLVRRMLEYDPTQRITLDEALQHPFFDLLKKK
Description: CP612 was screened for kinome specificity at 200 nM against 468 kinases using the scanMax assay panel from Eurofins-DiscoverX. CP612 inhibited 10 other WT kinases besides PKCε, all to < 10% of control: CLK1 (CDC Like Kinase 1), CLK4, PKN1 (Protein kinase N1), PKN2, PKCδ, PKCη, PKCθ, PRKG2 (Protein Kinase CGMP-Dependent 2), ROCK1, and ROCK2.

[1] = tested on: somatic signs of morphine withdrawal; test: Somatic signs of morphine withdrawal precipitated by naloxone; assay type: in vivo, DBA/2J mice; parameters: key to Score: Rearing / Score: Teeth chatter / Score: Body shakes / Score: Wall climbing / Score: Backpedaling / Score: Hopping: score of 1 per occurrence and episode; key to Global Withdrawal Score (sum of all scores): sum of behavior scores, 1 point per occurrence/episode; conditions: for Global Withdrawal Score (sum of all scores) / Score: Backpedaling / Score: Body shakes / Score: Hopping / Score: Rearing / Score: Teeth chatter / Score: Wall climbing: individual mice, 20 min interval; for Global Withdrawal Score (sum of all scores): after naloxone (5 mg/kg, i.p.); for Score: Backpedaling / Score: Body shakes / Score: Hopping / Score: Rearing / Score: Teeth chatter / Score: Wall climbing: number of observations after naloxone (5 mg/kg, i.p.)
Description: In addition to hyperalgesia, withdrawal from repeated administration of morphine produces somatic signs of withdrawal and conditioned place aversion. We tested the effects of CP612 on these responses. […] Two hours after this last injection of saline or morphine, mice were administered naloxone (5 mg/kg, i.p.) to precipitate somatic signs of withdrawal and conditioned place aversion. Withdrawal from repeated administration of morphine evoked somatic signs of withdrawal (Figure 11, A–C, and Supplemental Figure 2); only the highest dose of CP612 (40 mg/kg) reduced them (Figure 11, A–C) [H PKC inhibition (3, n = 62) = 33.34, P < 0.001]. Withdrawal from repeated administration of morphine also evoked conditioned place aversion (Figure 11, A and C) [F PKC inhibition (5,78) = 7.16, P < 0.001; mice receiving repeated administration of saline with vehicle versus mice receiving repeated administration of morphine with vehicle, P < 0.001], and this was not modified by CP612 at any dose tested (all P > 0.079).
The place conditioning apparatus was an acrylic box enclosed in light- and sound-attenuating, ventilated chambers (MED Associates). The box had 2 compartments separated by a removable sliding door. […] The dimensions of each compartment were 13.5 × 27 × 17 cm. Infrared light beams and photodetectors located along the walls of the box measured general activity and location of the mouse in each compartment, which were recorded using Activity Monitor version 7.0.5.10 software (Med Associates). On day 0 (pretest), drug-naive mice were acclimated for 15 minutes to the place conditioning apparatus without the sliding door, so they had free access to both compartments of the apparatus. This established a baseline side preference, based on the amount of time spent in each compartment. […] On day 6 (conditioning day), mice were pretreated with vehicle (10 mL/kg, i.p.) or CP612 (5, 10, 20, or 40 mg/kg, i.p.), followed by a single injection of morphine (100 mg/kg, i.p.) 4 hours later. Two hours after this last injection of morphine, mice were administered naloxone (5 mg/kg, i.p.), to precipitate withdrawal, and were immediately confined to 1 side of the conditioning apparatus for 20 minutes. During this conditioning period, mice were filmed (Raspberry Pi Camera) to assess somatic signs of withdrawal ([39]). Given the limited number of cameras and the poor quality of some videos, we were only able to film a subset of mice. The following behaviors were given a score of 1 per occurrence and episode: body shakes (paw tremors and wet dog shakes), teeth chatter, rearing, hopping, wall climbing, and backpedaling. These scores were summed to obtain a global withdrawal score and were obtained from an independent observer who was blind to the experimental conditions. A subset of videos was scored by 2 observers, to ensure internal validity (Cronbach’s α = 0.980, Correlation Observer r = 0.97, slope 1.15, P < 0.005). On day 7 (test day), mice were placed in the conditioning apparatus with free access to both compartments, for 15 minutes. We recorded the time spent in each compartment.
Gregory-Flores et al. (Supplementary Table and Figures)
Figure S2. Behavioral scores of morphine withdrawal precipitated by naloxone. Male mice

PKCζ = biological target: T3, PKCζ (Homo sapiens, UniProt Q05513); test: Lance-FRET kinase assay, PKCζ; assay type: biochemical; conditions: Figure 1B
T3 construct: purchased SignalChem Biotech
T3 sequence (Q05513 whole entry): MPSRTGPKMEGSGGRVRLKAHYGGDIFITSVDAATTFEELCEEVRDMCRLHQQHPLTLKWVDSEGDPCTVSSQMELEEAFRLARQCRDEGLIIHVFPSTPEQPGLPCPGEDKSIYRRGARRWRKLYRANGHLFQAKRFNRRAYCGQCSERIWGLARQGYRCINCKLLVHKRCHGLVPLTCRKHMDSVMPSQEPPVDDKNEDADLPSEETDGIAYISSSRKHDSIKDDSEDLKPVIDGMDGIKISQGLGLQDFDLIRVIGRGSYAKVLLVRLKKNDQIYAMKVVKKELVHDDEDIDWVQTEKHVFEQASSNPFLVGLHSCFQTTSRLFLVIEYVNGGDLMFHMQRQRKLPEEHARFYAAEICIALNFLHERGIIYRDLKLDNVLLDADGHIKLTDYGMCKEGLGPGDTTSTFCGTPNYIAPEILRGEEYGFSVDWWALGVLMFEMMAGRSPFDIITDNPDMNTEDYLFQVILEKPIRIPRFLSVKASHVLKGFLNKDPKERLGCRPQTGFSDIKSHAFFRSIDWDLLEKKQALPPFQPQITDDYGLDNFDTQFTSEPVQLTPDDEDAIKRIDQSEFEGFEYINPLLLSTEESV
Description: as §1, §2

N[C@H](CNC(=O)C1(c2ccc(Cl)cc2)CCCC1)c1ccc(C(=O)Nc2ccncc2)cc1 [CP612]
Inhibition of conventional PKCβII (PKCβII): weakly inhibited
remaining binding at 0.2 µM (CLK4): < 10%
Global Withdrawal Score (sum of all scores) ([1]; Morphine + CP612 10 mg/kg): 26 and 36 and 21 and 32 and 23 and 19 and 28 and 25 and 22 and 8 and 11 and 13 and 12
Score: Backpedaling ([1]; Morphine + CP612 10 mg/kg): 0 and 2 and 1
Score: Body shakes ([1]; Morphine + CP612 10 mg/kg): 6 and 9 and 7 and 10 and 2 and 11 and 8 and 1
Score: Hopping ([1]; Morphine + CP612 10 mg/kg): 0 and 1
Score: Rearing ([1]; Morphine + CP612 10 mg/kg): 16 and 15 and 9 and 10 and 7 and 13 and 12 and 2 and 3 and 8
Score: Teeth chatter ([1]; Morphine + CP612 10 mg/kg): 3 and 4 and 2 and 0 and 1
Score: Wall climbing ([1]; Morphine + CP612 10 mg/kg): 1 and 7 and 2 and 3 and 0 and 4 and 5
Global Withdrawal Score (sum of all scores) ([1]; Morphine + CP612 40 mg/kg): 17 and 23 and 18 and 11 and 8 and 4 and 10 and 13 and 9
Score: Backpedaling ([1]; Morphine + CP612 40 mg/kg): 3.5 and 0 and 1
Score: Body shakes ([1]; Morphine + CP612 40 mg/kg): 1 and 5 and 9 and 2 and 0
Score: Hopping ([1]; Morphine + CP612 40 mg/kg): 0.5 and 0 and 1
Score: Rearing ([1]; Morphine + CP612 40 mg/kg): 9 and 14 and 2 and 4 and 1 and 6 and 7 and 8
Score: Teeth chatter ([1]; Morphine + CP612 40 mg/kg): 0.5 and 3 and 5 and 2 and 1 and 0
Score: Wall climbing ([1]; Morphine + CP612 40 mg/kg): 2 and 1 and 0 and 3
Somatic signs of naloxone-precipitated morphine withdrawal ([1]; male DBA/2J mice, CP612 10 mg/kg i.p. (low dose)): evoked signs of withdrawal
Effect on somatic signs of naloxone-precipitated morphine withdrawal ([1]; male DBA/2J mice, CP612 40 mg/kg i.p., 40 mg/kg): attenuated; also recorded: reduced; also recorded: decreased
Inhibition of atypical PKCζ (PKCζ): did not inhibit
